Results from US20240041042A1, “1-(PYRIDYL)-5-AZINYLPYRAZOLE DERIVATIVES, AND THEIR USE FOR CONTROL OF UNDESIRED PLANT GROWTH” (Bayer Aktiengesellschaft, priority 2020, published 2024).
Where two headings read alike, the source gives them in different places.

Key:
Assay type in all cases: in vivo
[1] = system: Abutilon theophrasti (ABUTH); experiment: Post-emergence herbicidal action against ABUTH; settings: visual rating about 3 weeks after treatment vs untreated controls (100% = plants have died, 0% = like control plants)
Summary of the method: (§1)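 Greenhouse plants sprayed at the one-leaf stage, 2–3 weeks after sowing, with WP or EC formulations plus 0.5% additive at 600 l/ha water. Activity rated visually after about 3 weeks versus untreated controls (100% = dead, 0% = like control), at 320 g/ha or lower.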

[2] = system: Abutilon theophrasti (ABUTH); experiment: Pre-emergence herbicidal action against ABUTH; settings: 100% = plants have died
Summary of the method: (§2)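 Seeds sown in pots and covered with soil; WP or EC formulations sprayed onto the soil surface at 600 l/ha water with 0.5% additive, at 320 g/ha or lower. Greenhouse growth for about 3 weeks, then visual scoring as % effect against untreated controls (100% = plants dead).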

[3] = system: Amaranthus retroflexus (AMARE); experiment: Pre-emergence herbicidal action against AMARE; settings: visual scoring after about 3 weeks vs untreated controls
Summary of the method: as §2

[4] = system: Polygonum convolvulus (POLCO); experiment: Post-emergence herbicidal action against POLCO
Summary of the method: as §1

[5] = system: Alopecurus myosuroides (ALOMY); experiment: Post-emergence herbicidal action against ALOMY; settings: visual rating about 3 weeks after treatment vs untreated controls (100% = plants have died, 0% = like control plants)
Summary of the method: as §1

[6] = system: Pharbitis purpurea (PHBPU); experiment: Pre-emergence herbicidal action against PHBPU; settings: dosage 320 g/ha
Summary of the method: as §2

[7] = system: Oryza sativa (ORYSA); settings: crop plant compatibility, 80 g/ha, effect in comparison to untreated controls
Summary of the method: (§3)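 Greenhouse crops in sandy loam sprayed post-emergence at the one-leaf stage, 2–3 weeks after sowing, with WP or EC formulations in water plus 0.5% additive at 600 l/ha. Damage rated visually about 3 weeks later versus untreated controls (0% = like control, 100% = dead); suffixes a–c denote different doses.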

[8] = system: Zea mays (ZEAMX); settings: crop plant compatibility, effect vs untreated controls
Summary of the method: as §3

[9] = system: Alopecurus myosuroides (ALOMY); experiment: Pre-emergence herbicidal action against ALOMY; settings: 320 g/ha; scored visually after about 3 weeks; 100% = plants have died
Summary of the method: as §2

[10] = system: Verconica persica (VERPE); experiment: Post-emergence herbicidal action against VERPE
Summary of the method: as §1

[11] = system: Matricaria inodora (MATIN); experiment: Pre-emergence herbicidal action against MATIN
Summary of the method: as §2

[12] = system: Pharbitis purpurea (PHBPU); experiment: Post-emergence herbicidal action against PHBPU; settings: dosage 320 g/ha
Summary of the method: as §1

[13] = system: Echinochloa crus-galli (ECHCG); experiment: Post-emergence herbicidal action against ECHCG
Summary of the method: as §1

[14] = system: Viola tricolor (VIOTR); experiment: Post-emergence herbicidal action against VIOTR
Summary of the method: as §1

[15] = system: Polygonum convolvulus (POLCO); experiment: Pre-emergence herbicidal action against POLCO; settings: dosage 320 g/ha
Summary of the method: as §2

[16] = system: Lolium rigidum (LOLRI); experiment: Post-emergence herbicidal action against LOLRI; settings: dosage 320 g/ha
Summary of the method: as §1

[17] = system: Avena fatua (AVEFA); experiment: Pre-emergence herbicidal action against AVEFA; settings: 320 g/ha, visual scoring after about 3 weeks vs untreated controls
Summary of the method: as §2

[18] = system: Viola tricolor (VIOTR); experiment: Pre-emergence herbicidal action against VIOTR
Summary of the method: as §2

[19] = system: Lolium rigidum (LOLRI); experiment: Pre-emergence herbicidal action against LOLRI; settings: dosage 320 g/ha
Summary of the method: as §2

[20] = system: Amaranthus retroflexus (AMARE); experiment: Post-emergence herbicidal action against AMARE
Summary of the method: as §1

[21] = system: Brassica napus (BRSNW); settings: 80 g/ha, crop plant compatibility, in comparison to untreated controls
Summary of the method: (§4)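 Crop injury rated visually in percent against untreated plants roughly 3 weeks after treatment (0% no effect, 100% plants dead). Compounds, as WP or EC with 0.5% additive in 600 l/ha water, were applied to the covering soil right after sowing; greenhouse growth. Suffixes a, b, c denote different dosages.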

[22] = system: Zea mays (ZEAMX); settings: pre-emergence, crop plant compatibility, in comparison to untreated controls
Summary of the method: as §4

[23] = system: Triticum aestivum (TRZAS); settings: crop plant compatibility, 80 g/ha, effect vs untreated controls
Summary of the method: as §3

[24] = system: Digitaria sanguinalis (DIGSA); experiment: Pre-emergence herbicidal action against DIGSA; settings: dosage 320 g/ha
Summary of the method: as §2

[25] = system: Oryza sativa (ORYSA); settings: pre-emergence, crop plant compatibility, in comparison to untreated controls
Summary of the method: as §4

[26] = system: Setaria viridis (SETVI); experiment: Post-emergence herbicidal action against SETVI; settings: dosage 320 g/ha
Summary of the method: as §1

[27] = system: Avena fatua (AVEFA); experiment: Post-emergence herbicidal action against AVEFA; settings: visual rating about 3 weeks after treatment
Summary of the method: as §1

[28] = system: Setaria viridis (SETVI); experiment: Pre-emergence herbicidal action against SETVI; settings: dosage 320 g/ha
Summary of the method: as §2

[29] = system: Triticum aestivum (TRZAS); settings: pre-emergence, 80 g/ha, crop plant compatibility, in comparison to untreated controls
Summary of the method: as §4

[30] = 320 g/ha, visual rating about 3 weeks after treatment

Post-emergence action against ZEAMX in % ([8]; 80 g/ha) | Pre-emergence action against BRSNW in % [21] | Pre-emergence action against ZEAMX in % ([22]; 80 g/ha) | Pre-emergence action against ORYSA in % ([25]; 80 g/ha) | SMILES | Post-emergence action against ABUTH in % ([1]; 320 g/ha) | Pre-emergence action against AMARE in % ([3]; 320 g/ha) | Post-emergence action against POLCO in % ([4]; dosage 320 g/ha) | Post-emergence action against ALOMY in % ([5]; 320 g/ha) | Pre-emergence action against ALOMY [9] | Post-emergence action against VERPE in % ([10]; 320 g/ha, VERPE) | Post-emergence action against ECHCG in % ([13]; dosage 80 g/ha) | Post-emergence action against ECHCG in % ([13]; dosage 320 g/ha) | Post-emergence action against VIOTR in % ([14]; 320 g/ha) | Pre-emergence action against POLCO in % [15] | Post-emergence action against LOLRI in % [16] | Pre-emergence action against AVEFA in % [17] | Pre-emergence action against VIOTR in % ([18]; 320 g/ha, Viola tricolor) | Pre-emergence action against VIOTR in % ([18]; dosage 80 g/ha) | Post-emergence action against AMARE in % [20, 30] | other results
0% | 20% | 0% | – | CCOC(=O)COc1nn(-c2ncccc2C(F)(F)F)c(-c2ccc(F)nc2)c1Cl [Example I-325] | 90% | 100% | 80% | 100% | 100% | 90% | 90% | 90% | 90% | 90% | 90% | 100% | 100% | 90% | 80% | Post-emergence action against ABUTH in % ([1]; 80 g/ha): 80%; Pre-emergence action against ABUTH ([2]; 80 g/ha, scored visually after about 3 weeks vs untreated controls, 0% = like control plants): 90%; Pre-emergence action against ABUTH ([2]; Dosage column 320 g/ha (title prints 3200 g/ha), scored visually after about 3 weeks): 90%; Pre-emergence action against AMARE in % ([3]; 80 g/ha): 100%; Post-emergence action against ALOMY in % ([5]; 80 g/ha): 80%; Pre-emergence action against PHBPU in % [6]: 80%; Post-emergence action against ORYSA in % [7]: 20%; Post-emergence action against VERPE in % ([10]; dosage 80 g/ha): 80%; Pre-emergence action against MATIN in % ([11]; dosage 80 g/ha): 100%; Pre-emergence action against MATIN in % ([11]; dosage 320 g/ha): 100%; Post-emergence action against PHBPU in % [12]: 80%; Post-emergence action against VIOTR in % ([14]; 80 g/ha): 90%; Pre-emergence action against LOLRI in % [19]: 100%; Pre-emergence action against ZEAMX in % ([22]; 320 g/ha): 0%
– | 20% | 10% | 10% | COC(=O)C=CC(C)NC(=O)COc1nn(-c2ccccn2)c(-c2ccc(F)nc2)c1Br (centres unmarked) [Example I-297] | – | 80% | – | – | 80% | 80% | – | – | – | – | – | – | – | – | – | Post-emergence action against TRZAS in % [23]: 10%; Post-emergence action against ZEAMX in % ([8]; 320 g/ha): 0%; Pre-emergence action against DIGSA in % [24]: 80%; Pre-emergence action against ORYSA in % ([25]; 320 g/ha): 20%
0% | 20% | 0% | 0% | O=C(O)COc1nn(-c2ncccc2Cl)c(-c2ccc(F)nc2)c1Br [Example I-26] | 90% | 100% | 80% | 90% | 100% | 80% | 80% | 80% | 80% | 90% | 80% | 90% | 100% | 100% | 80% | Post-emergence action against POLCO in % ([4]; dosage 80 g/ha): 80%; Post-emergence action against SETVI in % [26]: 90%; Post-emergence action against AVEFA in % ([27]; 80 g/ha): 100%; Post-emergence action against AVEFA in % ([27]; 320 g/ha): 100%; Pre-emergence action against SETVI in % [28]: 100%; Post-emergence action against AMARE in % ([20]; 80 g/ha, visual rating about 3 weeks after treatment vs untreated controls (100% = plants have died, 0% = like control plants)): 80%; Pre-emergence action against TRZAS in % [29]: 0%
